The values below come from US20240417734A1, “Methods for Treating Glioblastoma by Targeting Oncomirs” (University of Connecticut, priority 2021, published 2024).

Test [1] deals with intracranial U87 tumors. As to the kind of experiment: Survival study, intracranial U87 tumors. Type of test: in vivo, mice. To be noted: NPs by CED 6 days post inoculation, TMZ 25 mg/kg i.p. Here is the method:
(§1) Animals were anaesthetized using a mixture of ketamine (100 mg/kg) and xylazine (10 mg/kg) via intraperitoneal injection. Anesthetized animals were then placed in a stereotaxic frame and sterilized the scalp with betadine and alcohol. To expose the coronal and sagittal sutures, a midline scalp incision was created, and a burr hole was drilled 2 mm lateral to the sagittal suture and 0.5 mm anterior to the bregma. U87 or G22 cells ([…]) in 3 μL PBS were injected into the right stratum over 3 min using a 10-μL Hamilton syringe. The animal was left 5 min for tissue equilibration before and after infusion. When infusion was finished, the burr hole was filled with bone wax and skin was stapled and cleaned.
(§2) CED in tumor bearing mice was similar to tumor inoculation by reopening the burr hole used for tumor inoculation. A micro-infusion pump (World Precision Instruments) was used to infuse 6 μL of NPs at a rate of […].
(§3) Tumors grew for 6 days before the administration of treatment. Intracranial CED of sγPNA/BNP was conducted following the same surgical procedure as described. TMZ (25 mg/kg) in PBS was administered intraperitoneally on day 7. Animals were monitored daily and weighed every week. […] Total RNA in the tumor and contralateral hemisphere was isolated using mirVana miRNA Isolation Kit and analyzed by real-time PCR detection system as previously described.

Test [2] deals with U87 cells. As to the kind of experiment: Cell viability assay, U87. Type of test: cell-based, human. To be noted: BNP 0.5 mg/mL, TMZ 20 μM. Here is the method: Cells were seeded in 96-well plates at a density of 5,000 cells/well and treated with increasing concentrations of NP formulations. Cell viability was evaluated by CellTiter-Glo Luminescent Cell Viability Assay (Promega) after 48 h, 72 h treatment. Luminescence was measured using a plate reader (SpectraMax M5) and relative cell viability was normalized to the viability of untreated cells. For TMZ involved combination studies, cells were seeded in 96-well plates at a density of 1,000 cells/well and exposed to sγPNA/NNP and sγPNA/BNP. After 72 h of treatments, NPs were removed and TMZ was added to the wells. Cell viability was measured as described above after 6 days of treatment.

Test [3] concerns patient (G22) derived intracranial gliomas. The test is described as follows: Survival study, patient-derived G22 orthotopic tumors. The class given is in vivo, mice. To be noted: G22 orthotopic model; single dose TMZ 25 mg/kg. Here is the method: as §1, §2, §3

The viability is a per cent measure of how many cells are alive, often set against a control. Consider `Cn1nnc2c(C(N)=O)ncn2c1=O` [TMZ, Temozolomide], for which the Median survival in test [1] was 81 days; in test [3], 79 days. In test [2], the “Cell viability/100” value worked out at 0.66. Further, in test [2] (Homo sapiens, U-87 MG, read-out: Cell viability (% of control)), the viability at 20 µM stood at 66%.
